Measurements published in patent US4152440A, “Novel derivatives of imidazole, and pharmaceutical compositions containing them” (Hoechst Aktiengesellschaft, priority 1975, dated 1979).

Tests used:
Oxonat rat [1] = test: Combined metabolic test in the Oxonat rat (Test 2 of Table 2): uric acid in urine and serum; format: in vivo, male Wistar rats; settings: for Serum - uric acid / Separation of uric acid in the urine, 3rd day / Serum - uric acid, % of control: 3rd day; for Separation of uric acid in the urine, 1st day: 1st day (urine collected before administration, control value)
Procedure: (§1) In this test series, the uricase activity of the rats' livers is inhibited by the application of potassium oxonate (potassium salt of 2,4-dihydroxy-1,3,5-triazine-(6)-carboxylic acid) and thus a gout-like disorder of the purine metabolism is induced. The animals are tested in two different ways.
(§2) 18 hours before the start of the test, the animals were placed separately in metabolism cages. At the same time they were offered unlimited quantities of a 0.5% potassium oxonate solution to drink. On the 1st day of the test, first the urine samples collected were removed (control value) then the substances to be tested were administered in a 0.5% potassium oxonate solution by oesophageal tube into the stomach. The same operation was repeated on the 2nd day of the test. After removal of the 24 hour urine (1st sample after administration of the preparation) the test substances were administered a second time by oesophageal tube. On the 3rd day of the test, the animals were killed and bled, immediately after the urine samples from the preceding 24 hours had been collected (2nd sample after administration of the preparation). Both in the serum obtained and also in the urine samples, the concentration of uric acid was determined enzymatically, using the uricase method (Uricaquant, Boehringer Mannheim), together with a large number of metabolic parameters.
This test series differs from the diuresis test described in 1) only in the method of administration of the uricase inhibitor. The animals drink water throughout the test and are given the potassium oxonate in a special feed mixture consisting of normal standard rat food to which 5% fructose, 3% uric acid, 2% potassium oxonate and 0.1% sweetener have been added. The administration of the preparations to be tested and the analysis of the urine samples from the 1st, 2nd and 3rd days of the test and of the serum samples obtained on the 3rd day of the test were carried out as described in the diuresis test.

[2] = Acute toxicity (LD50), oral by oesophageal tube; settings: rat, in vivo, rats, mortality within 7 days
Oxonat rat [3] = test: Diuresis test in the Oxonat rat (Test 1 of Table 2): uric acid in urine and serum; format: in vivo, male Wistar rats; settings: 25 mg/kg oral, n=8, diuresis test (Test 1)
Procedure: The compounds may therefore be useful as therapeutic agents for various disorders of purine metabolism, particularly in treating primary and secondary gout.
as §1, §2

[4] = 50 mg/kg oral, n=8, comparison preparation, own control group (Test 2)
[5] = 25 mg/kg oral, n=8, combined metabolic test (Test 2)
[6] = 25 mg/kg oral, n=8, combined metabolic test (Test 2), * p<0.05 (Duncan), control 8.64± 3.51

| SMILES | Serum - uric acid (Oxonat rat [1]; 50 mg/kg oral, n=8, comparison preparation (Test 2), own control 6.70± 0.89) [mg %] | Separation of uric acid in the urine, 1st day (Oxonat rat [1]; [4]) | Separation of uric acid in the urine, 2nd day (Oxonat rat [1]; [4]) | Separation of uric acid in the urine, 3rd day (Oxonat rat [1]; [4]) | LD50 at 168 h [2] [mg/kg] | Separation of uric acid in the urine, 2nd day (Oxonat rat [1]; [5]) | Separation of uric acid in the urine, 3rd day (Oxonat rat [1]; [5]) | Serum - uric acid, % of control (Oxonat rat [1]; [5]) [%] | Serum - uric acid (Oxonat rat [1]; [6]) [mg %] | Separation of uric acid in the urine, 1st day (Oxonat rat [1]; [5]) | Separation of uric acid in the urine, 1st day (Oxonat rat [3]; 1st day (urine collected before administration, control value)) | Separation of uric acid in the urine, 2nd day (Oxonat rat [3]; 2nd day) | Separation of uric acid in the urine, 3rd day (Oxonat rat [3]; 3rd day) | Serum - uric acid, % of control (Oxonat rat [3]; 3rd day) [%] | Serum - uric acid (Oxonat rat [3]; 3rd day, * p<0.05 (Duncan), control 3.50± 1.15) [mg %] |
| --- | --- | --- | --- | --- | --- | --- | --- | --- | --- | --- | --- | --- | --- | --- | --- |
| Oc1ncnc2[nH]ncc12 [Allopurinol, 1 H-Pyrazolo[3,4-]pyrimidine-4-ol, reference compound] | 6.21± 0.76 | 0.99± 0.51 | 2.16± 0.81 | 3.82± 1.59 |  |  |  |  |  |  |  |  |  |  |  |
| Cn1ccnc1Cc1nnn[nH]1 [Example 1, 1-Methyl-2-(5-tetrazolylmethyl)-imidazole] |  |  |  |  | > 3150 | 3.30± 2.12 | 3.32± 1.94 | -44 | 4.83± 1.69 |  |  |  |  |  |  |
| CC(C)n1ccnc1Cc1nn[nH]n1 [Example 3, 1-Isopropyl-2-(5-tetrazolymethyl)-imidazole] |  |  |  |  |  | 2.25± 0.41 |  | -19 | 6.97± 2.07 | 1.68± 0.51 |  |  |  |  |  |
| c1ccc(Cn2ccnc2Cc2nn[nH]n2)cc1 [Example 5, 1-benzyl-2-(5-tetrazolymethyl)-imidazole] |  |  |  |  |  | 2.76± 1.21 | 2.28± 1.31 | -30 | 6.05± 1.96 | 1.78± 0.92 |  |  |  |  |  |
| Cc1ccccc1-n1ccnc1Cc1nnn[nH]1 [Example 11, 1-(o-Tolyl)-2-(5-tetrazolylmethyl)-imidazole] |  |  |  |  |  | 2.24± 0.57 | 2.33± 1.70 | -31 | 6.00± 1.73 | 1.12± 0.64 |  |  |  |  |  |
| c1ccc(Cn2ccnc2-c2nnn[nH]2)cc1 [Example 24, 1-Benzyl-2-(5-tetrazolyl)-imidazole] |  |  |  |  | > 4000 | 2.04± 0.80 | 2.51± 1.55 | -30 | 6.07± 1.63 | 1.81± 0.61 | 2.56± 1.14 | 3.97± 1.44 | 3.47± 1.31 | -31 | 2.41± 0.98 |
